Experimental findings from US9126976B2 (Merck Sharp & Dohme Corp., priority 2011, dated 2015) are described below.

In the first assay the target is CETP (Homo sapiens (Human), UniProt P11597). Description: Scintillation Proximity Assay (SPA) for CETP activity. Format: biochemical. The settings on record: Table 1, read-out: IC50. As to the method: Protocol: Scintillation Proximity Assay (SPA) for CETP Activity
CETP, sequence (P11597 18-493): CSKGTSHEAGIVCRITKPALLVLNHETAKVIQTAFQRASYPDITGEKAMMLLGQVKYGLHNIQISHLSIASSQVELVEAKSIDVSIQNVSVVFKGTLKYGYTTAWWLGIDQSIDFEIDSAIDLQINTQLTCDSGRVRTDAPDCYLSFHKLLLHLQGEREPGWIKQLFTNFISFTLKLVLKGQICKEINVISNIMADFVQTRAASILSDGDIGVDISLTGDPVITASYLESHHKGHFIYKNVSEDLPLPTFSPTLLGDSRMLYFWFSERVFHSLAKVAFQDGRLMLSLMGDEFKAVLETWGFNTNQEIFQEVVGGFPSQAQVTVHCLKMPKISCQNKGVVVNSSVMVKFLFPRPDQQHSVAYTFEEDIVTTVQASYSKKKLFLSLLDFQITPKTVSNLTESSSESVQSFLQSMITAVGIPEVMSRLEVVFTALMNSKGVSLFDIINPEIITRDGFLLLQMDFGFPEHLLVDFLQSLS
First, low density lipoprotein (LDL) (Meridian) was biotinylated by incubating LDL with biotin for 1 hour on ice, after which it was dialyzed to remove free biotin. Then compounds at varying concentrations were incubated with 15 nM CETP (reagent production group, In Vitro Pharmacology, MRL Rahway) and 50 ug/ml of the biotinylated LDL in 50 mM HEPES, 150 mM NaCl, pH 7.4, for 1 hour at 37° C. The reaction was started by adding 3H-cholesterol ester high density lipoprotein (HDL) (American Radiochemicals Corp) at a concentration of ˜0.6 nM. The reaction proceeded for 2 hours at 37° C., after which time it was quenched by the addition of 12% acetic acid. PVT streptavadin-coated scintillation proximity beads, which had been brought to room temperature, were then added at a concentration of 4 mg/ml. The assay was then mixed and counted after one half hour in a Microbeta plate reader.
(In general: Scintillation proximity formats need no separation of bound from free tracer.)
Regarding `O[C@H](CN1c2ccccc2N(Cc2cc(Cl)cc(Cl)c2)C[C@H]1c1ccccc1)C(F)(F)F` [Example 31, (R)-3-((R)-4-(3,5-dichlorobenzyl)-2-phenyl-3,4-dihydroquinoxalin-1(2H)-yl)-1,1,1-trifluoropropan-2-ol], the concentration for half-maximal inhibition (IC50) (usually the concentration needed to halve the response being measured) is 2760 nM.

`O[C@H](CN1c2ccccc2N(Cc2ccsc2)C[C@H]1c1cccc(C(F)(F)F)c1)C(F)(F)F` [Example 38, (R)-3-((R)-4-(thiophenyl-3-ylmethyl)-2-(3-(trifluoromethyl)phenyl)3,4-dihydroquinoxalin-1(2H)-yl)-1,1,1-trifluoropropan-2-ol]: the IC50 was found to be 461 nM.

With `O[C@H](CN1c2ccccc2N(CC2CCCCC2)C[C@H]1c1cccc(C(F)(F)F)c1)C(F)(F)F` [Example 37, (R)-3-((R)-4-(cyclohexylmethyl)-2-(3-(trifluoromethyl)phenyl)-3,4-dihydroquinoxalin-1(2H)-yl)-1,1,1-trifluoro propan-2-ol], the half-inhibitory concentration (IC50) was 1270 nM.

For the compound `Cc1cccc(CN2C[C@@H](c3cccc(C(F)(F)F)c3)N(C[C@@H](O)C(F)(F)F)c3ccccc32)n1` [Example 44], the IC50 was determined as 460 nM.

In the case of `Cc1ccc(C(F)(F)F)cc1CN1C[C@@H](c2cccc(C(F)(F)F)c2)N(C[C@@H](O)C(F)(F)F)c2ccccc21` [Example 43, (2R)-1,1,1-trifluoro-3-(4-(2-methyl-5-(trifluoromethyl)benzyl)-2-(3-(trifluoromethyl)phenyl)-3,4-dihydroquinoxalin-1(2H)-yl)propan-2-ol], the IC50 worked out at 270 nM.

Turning to `Cc1ccc([C@@H]2CN(Cc3cccc(OC(F)(F)F)c3)c3ccccc3N2C[C@@H](O)C(F)(F)F)cc1` [Example 53], the concentration for half-maximal inhibition (IC50) stood at 56 nM.

Take `O[C@H](CN1c2ccccc2N(Cc2cccc(OC(F)(F)F)c2)C[C@H]1c1ccc(Cl)cc1)C(F)(F)F` [Example 49]: the concentration for half-maximal inhibition (IC50) was 20 nM.

Turning to `O[C@H](CN1c2ccccc2N(Cc2cccc(OC(F)(F)F)c2)C[C@H]1c1ccc(F)cc1)C(F)(F)F` [Example 52], the IC50 is 682 nM.

As to `O[C@H](CN1c2ccccc2N(Cc2cccc(C(F)(F)F)c2)C[C@H]1c1cccc(C(F)(F)F)c1)C(F)(F)F` [Example 40, (2R)-1,1,1-trifluoro-3-(4-(3-(trifluoromethyl)benzyl)-2-(3-(trifluoromethyl)phenyl)-3,4-dihydroquinoxalin-1(2H)-yl)propan-2-ol], the IC50 was 57.1 nM.

Regarding `O[C@H](CN1c2ccccc2N(Cc2cc(F)cc(C(F)(F)F)c2)C[C@H]1c1cccc(C(F)(F)F)c1)C(F)(F)F` [Example 41, (2R)-1,1,1-trifluoro-3-(4-(3-fluoro-5-(trifluoromethyl)benzyl)-2-(3-(trifluoromethyl)phenyl)-3,4-dihydroquinoxalin-1(2H)-yl)propan-2-ol], the 50% inhibitory concentration (IC50) was 45.2 nM.

As for `O[C@H](CN1c2ccccc2N(Cc2cccc(Cl)c2)C[C@H]1c1ccccc1)C(F)(F)F` [Example 30, (R)-3-((R)-4-(3-chlorobenzyl)-2-phenyl-3,4-dihydroquinoxalin-1(2H)-yl)-1,1,1-trifluoropropan-2-ol], the IC50 turned out to be 1400 nM.

As to `O[C@H](CN1c2ccccc2N(Cc2cccc(Cl)c2Cl)C[C@H]1c1cccc(C(F)(F)F)c1)C(F)(F)F` [Example 34, (R)-3-((R)-4-(2,3-dichlorobenzyl)-2-(3-(trifluoromethyl)phenyl)-3,4-dihydroquinoxalin-1(2H)-yl)-1,1,1-trifluoro propan-2-ol], the IC50 came to 169 nM.

Consider `O[C@H](CN1c2ccccc2N(Cc2cc(Cl)cc(Cl)c2)C[C@H]1c1cccc(C(F)(F)F)c1)C(F)(F)F` [Example 32, (R)-3-((R)-4-(3,5-dichlorobenzyl)-2-(3-(trifluoromethyl)phenyl)-3,4-dihydroquinoxalin-1(2H)-yl)-1,1,1-trifluoro propan-2-ol], for which the 50% inhibitory concentration (IC50) came out at 12 nM.

As to `COc1cc2ccc([C@@H]3CN(Cc4cccc(OC(F)(F)F)c4)c4ccccc4N3C[C@@H](O)C(F)(F)F)cc2cc1OC` [Example 50], the IC50 was found to be 193 nM.

Take `CCc1cc(CN2C[C@@H](c3cccc(C(F)(F)F)c3)N(C[C@@H](O)C(F)(F)F)c3ccccc32)ccc1Cl` [Example 42, (2R)-3-(4-(4-chloro-3-ethylbenzyl)-2-(3-(trifluoromethyl)phenyl)-3,4-dihydroquinoxalin-1(2H)-yl)-1,1,1-trifluoropropan-2-ol]: the IC50 was found to be 45.1 nM.

On to `COc1ccc([C@@H]2CN(Cc3cccc(OC(F)(F)F)c3)c3ccccc3N2C[C@@H](O)C(F)(F)F)cc1` [Example 54], for which the concentration for half-maximal inhibition (IC50) came out at 69 nM.

For `O[C@H](CN1c2ccccc2N(Cc2ccc(Cl)cc2)C[C@H]1c1cccc(C(F)(F)F)c1)C(F)(F)F` [Example 39, (2R)-3-(4-(4-chlorobenzyl)-2-(3-(trifluoromethyl)phenyl)-3,4-dihydroquinoxalin-1(2H)-yl)-1,1,1-trifluoropropan-2-ol], the 50% inhibitory concentration (IC50) came to 548 nM.

As to `Cc1ccccc1CN1C[C@@H](c2cccc(C(F)(F)F)c2)N(C[C@@H](O)C(F)(F)F)c2ccccc21` [Example 33, (R)-3-((R)-4-(2-methylbenzyl)-2-(3-(trifluoromethyl)phenyl)-3,4-dihydroquinoxalin-1(2H)-yl)-1,1,1-trifluoro propan-2-ol], the IC50 is 428 nM.

For `O[C@H](CN1c2ccccc2N(Cc2c(Cl)cccc2Cl)C[C@H]1c1cccc(C(F)(F)F)c1)C(F)(F)F` [Example 35, (R)-3-((R)-4-(2,6-dichlorobenzyl)-2-(3-(trifluoromethyl)phenyl)-3,4-dihydroquinoxalin-1(2H)-yl)-1,1,1-trifluoro propan-2-ol], the IC50 came out at 1160 nM.

`O[C@H](CN1c2ccccc2N(Cc2cc(F)cc(C(F)(F)F)c2)C[C@H]1c1ccccc1)C(F)(F)F` [Example 29, (R)-3-((R)-4-(3-fluoro-5-(trifluoromethyl)benzyl)-2-phenyl-3,4-dihydroquinoxalin-1(2H)-yl)-1,1,1-trifluoropropan-2-ol]: the half-maximal inhibitory concentration (IC50) came out at 105 nM.

On to `O[C@H](CN1c2ccccc2N(Cc2cccc(OC(F)(F)F)c2)C[C@H]1c1ccc2c(c1)OCCO2)C(F)(F)F` [Example 51], for which the IC50 was 209 nM.

Staying with this assay, now noted: Table 2, read-out: IC50 SPA.
Consider `O[C@H](CN1c2ccccc2N(Cc2ncccc2N2CCOCC2)C[C@H]1c1cccc(C(F)(F)F)c1)C(F)(F)F` [Example 63], for which the concentration for half-maximal inhibition (IC50) turned out to be 1570 nM.

For the compound `O[C@H](CN1c2ccccc2N(Cc2cccc(OC(F)F)c2)C[C@H]1c1cccc(C(F)(F)F)c1)C(F)(F)F` [Example 64], the IC50 worked out at 16 nM.

As to `O[C@H](CN1c2ccccc2N(Cc2cccc(OC(F)(F)F)c2)CC1c1cccc(-c2ccccc2)c1)C(F)(F)F` (some centres unmarked) [Example 69], the IC50 is 163 nM.

Consider `O[C@H](CN1c2ccccc2N(CC2CCOCC2)C[C@H]1c1cccc(OC(F)(F)F)c1)C(F)(F)F` [Example 67], for which the half-inhibitory concentration (IC50) was determined as 29 nM.

As for `O[C@H](CN1c2c(ccc(F)c2F)N(Cc2cccc(OC(F)(F)F)c2)CC1c1cccc(C(F)(F)F)c1)C(F)(F)F` (some centres unmarked) [Example 65], the half-inhibitory concentration (IC50) stood at 157 nM.

For `O[C@H](CN1c2ccccc2N(Cc2cccc(OC(F)(F)F)c2)CC1c1ccc(-c2ccccc2)cc1)C(F)(F)F` (some centres unmarked) [Example 68], the 50% inhibitory concentration (IC50) was 25 nM.

For `O[C@H](CN1c2ccccc2N(CC2=CCCCC2)C[C@H]1c1cccc(OC(F)(F)F)c1)C(F)(F)F` [Example 66], the IC50 is 8 nM.

With `O[C@H](CN1c2ccccc2N(Cc2ccnc(N3CCOCC3)c2)C[C@H]1c1cccc(C(F)(F)F)c1)C(F)(F)F` [Example 62], the half-inhibitory concentration (IC50) is 326 nM.

Still in this assay, the particulars now being: read-out: SPA IC50.
Consider `CS(=O)(=O)c1ccc([C@@H]2CN(Cc3cccc(OC(F)(F)F)c3)c3ccccc3N2C[C@@H](O)C(F)(F)F)cc1` [Example 23], for which the IC50 turned out to be 96 nM.

With `O[C@H](CN1c2ccccc2N(Cc2cccc(OC(F)(F)F)c2)C[C@H]1c1cccc(C(F)(F)F)c1)C(F)(F)F` [Example 10], the IC50 was 9 nM.

As to `Cc1cc([C@@H]2CN(Cc3cccc(OC(F)(F)F)c3)c3ccccc3N2C[C@@H](O)C(F)(F)F)n(C)n1` [Example 28], the IC50 was found to be 390 nM.

With `O[C@H](CN1c2ccccc2N(Cc2cccc(OC(F)(F)F)c2)C[C@H]1c1cccnc1)C(F)(F)F` [Example 22], the IC50 was 258 nM.

Regarding `CN(C)c1ncc([C@@H]2CN(Cc3cccc(OC(F)(F)F)c3)c3ccccc3N2C[C@@H](O)C(F)(F)F)cn1` [Example 27], the IC50 amounted to 30 nM.

As to `O[C@H](CN1c2ccccc2N(Cc2cccc(OC(F)(F)F)c2)C[C@H]1c1ccc(C(F)(F)F)cc1)C(F)(F)F` [Example 11], the IC50 stood at 4 nM.

Take `COc1cccc([C@@H]2CN(Cc3cccc(OC(F)(F)F)c3)c3ccccc3N2C[C@@H](O)C(F)(F)F)c1` [Example 20]: the IC50 came out at 78 nM.

Regarding `O[C@H](CN1c2ccccc2N(Cc2cccc(OC(F)(F)F)c2)C[C@H]1c1cccc(OC(F)(F)C(F)F)c1)C(F)(F)F` [Example 18], the half-maximal inhibitory concentration (IC50) turned out to be 15 nM.

In the case of `C[C@@H](c1cccc(C(F)(F)F)c1)N1C[C@@H](c2cccc(C(F)(F)F)c2)N(C[C@@H](O)C(F)(F)F)c2ccccc21` [Example 12], the IC50 was determined as 28 nM.

As for `O[C@H](CN1c2ccccc2N(Cc2cccc(OC(F)(F)F)c2)C[C@H]1c1ccc(C(F)(F)F)nc1)C(F)(F)F` [Example 26], the IC50 amounted to 24 nM.

For the compound `C[C@@H](c1ccccc1)N1C[C@@H](c2cccc(C(F)(F)F)c2)N(C[C@@H](O)C(F)(F)F)c2ccccc21` [Example 14], the half-maximal inhibitory concentration (IC50) stood at 1460 nM.

For the compound `CNC(=O)c1cccc(C2CN(Cc3cccc(OC(F)(F)F)c3)c3ccccc3N2C[C@@H](O)C(F)(F)F)c1` (stereo partly drawn) [Example 19, N-methyl-3-{1-[(R)-3,3,3-trifluoro-2-hydroxypropyl]-4-[3-(trifluoro-methoxy)benzyl]-1,2,3,4-tetrahydroquinoxalin-2-yl}benzamide], the IC50 is 90 nM.
